Source: PubChem BioAssay (NCI)
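Method: 48-hour compound exposure of cells in 96-well plates, five concentrations, linear interpolation of endpoints. GI50 is the concentration that inhibits growth by half. The concentration for full growth arrest is given as TGI.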

What was measured:
Assay in all cases: NCI-60 cell line screen, 48 h
MOLT-4 leukemia = tested on: MOLT-4 leukemia
UO-31 renal = tested on: UO-31 renal
NCI/ADR-RES ovarian = tested on: NCI/ADR-RES ovarian
HL-60(TB) leukemia = tested on: HL-60(TB) leukemia
EKVX NSCLC = tested on: EKVX NSCLC
BT-549 breast = tested on: BT-549 breast
HCC-2998 colon = tested on: HCC-2998 colon
HS 578T breast = tested on: HS 578T breast
A498 renal = tested on: A498 renal
CCRF-CEM leukemia = tested on: CCRF-CEM leukemia

Compound: COc1ccc(N(C)c2c3ccccc3nc3[nH]c4ccccc4c23)cc1
- GI50 (MOLT-4 leukemia): 0.0883 µM
- TGI (MOLT-4 leukemia): 50 µM
- GI50 (UO-31 renal): 2.83 µM
- TGI (UO-31 renal): 22.2 µM
- GI50 (NCI/ADR-RES ovarian): 2.95 µM
- TGI (NCI/ADR-RES ovarian): 9.91 µM
- GI50 (HL-60(TB) leukemia): 0.112 µM
- TGI (HL-60(TB) leukemia): 0.466 µM
- GI50 (EKVX NSCLC): 1.06 µM
- TGI (EKVX NSCLC): 4.12 µM
- GI50 (BT-549 breast): 1.24 µM
- TGI (BT-549 breast): 4.39 µM
- GI50 (HCC-2998 colon): 0.268 µM
- TGI (HCC-2998 colon): 1.02 µM
- GI50 (HS 578T breast): 2.55 µM
- TGI (HS 578T breast): 11 µM
- GI50 (A498 renal): 0.939 µM
- TGI (A498 renal): 2.61 µM

Compound: COc1ccccc1/C=C/C(=O)/C=C/c1ccccc1OC
- GI50 (MOLT-4 leukemia): 2.4 µM
- TGI (MOLT-4 leukemia): 9.06 µM
- GI50 (UO-31 renal): 1.83 µM
- TGI (UO-31 renal): 3.33 µM
- GI50 (NCI/ADR-RES ovarian): 2.53 µM
- TGI (NCI/ADR-RES ovarian): 8.98 µM
- GI50 (HL-60(TB) leukemia): 2.69 µM
- TGI (HL-60(TB) leukemia): 8.45 µM
- GI50 (EKVX NSCLC): 2.42 µM
- TGI (EKVX NSCLC): 6.22 µM
- GI50 (BT-549 breast): 1.6 µM
- TGI (BT-549 breast): 3.19 µM
- GI50 (HCC-2998 colon): 1.92 µM
- TGI (HCC-2998 colon): 3.37 µM
- GI50 (CCRF-CEM leukemia): 2.04 µM
- TGI (CCRF-CEM leukemia): 9.19 µM
- GI50 (HS 578T breast): 3.4 µM
- TGI (HS 578T breast): 39.2 µM
- GI50 (A498 renal): 1.54 µM
- TGI (A498 renal): 3.06 µM

Compound: Cc1cc(N(CCCl)CCCl)ccc1/C=N/NC(=O)Cc1cc(=O)oc2cc(O)ccc12
- TGI (MOLT-4 leukemia): 50.4 µM
- TGI (UO-31 renal): 47.2 µM
- TGI (NCI/ADR-RES ovarian): > 100 µM
- TGI (HL-60(TB) leukemia): 33.5 µM
- TGI (EKVX NSCLC): 82.9 µM
- TGI (BT-549 breast): 34.7 µM
- TGI (HCC-2998 colon): 72 µM
- TGI (CCRF-CEM leukemia): 46 µM
- TGI (HS 578T breast): 56.3 µM
- TGI (A498 renal): 45.3 µM

Compound: OCC(O)C(O)C(O)/C=N/Nc1nc2ccccc2nc1-c1ccccc1 (configuration not stated)
- GI50 (UO-31 renal): > 100 µM
- TGI (UO-31 renal): > 100 µM
- GI50 (NCI/ADR-RES ovarian): 45.9 µM
- TGI (NCI/ADR-RES ovarian): > 100 µM
- GI50 (HL-60(TB) leukemia): 5.15 µM
- TGI (HL-60(TB) leukemia): > 100 µM
- GI50 (EKVX NSCLC): > 100 µM
- TGI (EKVX NSCLC): > 100 µM
- GI50 (BT-549 breast): > 100 µM
- TGI (BT-549 breast): > 100 µM
- GI50 (HCC-2998 colon): 91.2 µM
- TGI (HCC-2998 colon): > 100 µM
- GI50 (CCRF-CEM leukemia): 32.2 µM
- TGI (CCRF-CEM leukemia): > 100 µM
- GI50 (HS 578T breast): 83.6 µM
- TGI (HS 578T breast): > 100 µM
- GI50 (A498 renal): > 100 µM
- TGI (A498 renal): > 100 µM

Compound: Cn1c(=O)c(Oc2ccccc2)cc2cnc(NC3CCOCC3)nc21
- GI50 (MOLT-4 leukemia): > 25 µM
- TGI (MOLT-4 leukemia): > 25 µM
- GI50 (UO-31 renal): > 25 µM
- TGI (UO-31 renal): > 25 µM
- GI50 (NCI/ADR-RES ovarian): > 25 µM
- TGI (NCI/ADR-RES ovarian): > 25 µM
- GI50 (HL-60(TB) leukemia): > 25 µM
- TGI (HL-60(TB) leukemia): > 25 µM
- GI50 (BT-549 breast): > 25 µM
- TGI (BT-549 breast): > 25 µM
- GI50 (HCC-2998 colon): > 25 µM
- TGI (HCC-2998 colon): > 25 µM
- GI50 (CCRF-CEM leukemia): > 25 µM
- TGI (CCRF-CEM leukemia): > 25 µM
- GI50 (HS 578T breast): > 25 µM
- TGI (HS 578T breast): > 25 µM
- GI50 (A498 renal): > 25 µM
- TGI (A498 renal): > 25 µM

Compound: COc1ccc(N(/C=C/C(=O)C(F)(F)F)CC(=O)c2ccc(Cl)c(Cl)c2)cc1
- GI50 (MOLT-4 leukemia): 3.9 µM
- TGI (MOLT-4 leukemia): > 100 µM
- GI50 (UO-31 renal): 24.1 µM
- TGI (UO-31 renal): > 100 µM
- GI50 (NCI/ADR-RES ovarian): 19 µM
- TGI (NCI/ADR-RES ovarian): 39.3 µM
- GI50 (EKVX NSCLC): 13.2 µM
- TGI (EKVX NSCLC): 27.6 µM
- GI50 (BT-549 breast): 7.57 µM
- TGI (BT-549 breast): 22 µM
- GI50 (HCC-2998 colon): 18.5 µM
- TGI (HCC-2998 colon): 32.5 µM
- GI50 (CCRF-CEM leukemia): 3.39 µM
- TGI (CCRF-CEM leukemia): 18.3 µM
- GI50 (HS 578T breast): 4.81 µM
- TGI (HS 578T breast): 14.6 µM
- GI50 (A498 renal): 10.1 µM
- TGI (A498 renal): 22.2 µM

Compound: Nc1nc(-c2cccc([N+](=O)[O-])c2)cc(-c2cc(-c3cccc([N+](=O)[O-])c3)nc(N)n2)n1
- TGI (MOLT-4 leukemia): > 100 µM
- TGI (UO-31 renal): > 100 µM
- TGI (NCI/ADR-RES ovarian): > 100 µM
- TGI (HL-60(TB) leukemia): > 100 µM
- TGI (EKVX NSCLC): > 100 µM
- TGI (BT-549 breast): > 100 µM
- TGI (HCC-2998 colon): > 100 µM
- TGI (HS 578T breast): > 100 µM
- TGI (A498 renal): > 100 µM

Compound: O=C1NN(c2ccccc2)C(=O)/C1=C/c1ccc(Br)o1
- GI50 (MOLT-4 leukemia): 6.06 µM
- TGI (MOLT-4 leukemia): 24.6 µM
- GI50 (UO-31 renal): 8.8 µM
- TGI (UO-31 renal): > 64.1 µM
- GI50 (NCI/ADR-RES ovarian): 15.8 µM
- TGI (NCI/ADR-RES ovarian): 54.8 µM
- GI50 (HL-60(TB) leukemia): 10.5 µM
- TGI (HL-60(TB) leukemia): > 81.1 µM
- GI50 (EKVX NSCLC): 1.54 µM
- TGI (EKVX NSCLC): 36.6 µM
- TGI (BT-549 breast): 17.2 µM
- GI50 (CCRF-CEM leukemia): 5.23 µM
- TGI (CCRF-CEM leukemia): 19.8 µM
- GI50 (HS 578T breast): 1.49 µM
- TGI (HS 578T breast): 3.11 µM
- GI50 (A498 renal): 23 µM
- TGI (A498 renal): 53.9 µM

Compound: CNCCCNCCCN1C(=O)c2ccc3c4c(ccc(c24)C1=O)C(=O)N(CCCNCc1ccccc1OC)C3=O
- GI50 (MOLT-4 leukemia): 0.534 µM
- TGI (MOLT-4 leukemia): 3.55 µM
- GI50 (UO-31 renal): 5.88 µM
- TGI (UO-31 renal): 27.5 µM
- GI50 (NCI/ADR-RES ovarian): 12.1 µM
- TGI (NCI/ADR-RES ovarian): 71.1 µM
- GI50 (HL-60(TB) leukemia): 2 µM
- TGI (HL-60(TB) leukemia): 7.09 µM
- GI50 (BT-549 breast): 5.03 µM
- TGI (BT-549 breast): 18.7 µM
- GI50 (HCC-2998 colon): 1.93 µM
- TGI (HCC-2998 colon): 6.42 µM
- GI50 (CCRF-CEM leukemia): 0.465 µM
- TGI (CCRF-CEM leukemia): 4.53 µM
- GI50 (HS 578T breast): 3.02 µM
- TGI (HS 578T breast): 28.5 µM
- GI50 (A498 renal): 1.54 µM
- TGI (A498 renal): 8.91 µM

Compound: OCc1ccc(N(CCN2CCCC2)Cc2ccc(F)cc2)cc1Cl
- GI50 (MOLT-4 leukemia): 25.2 µM
- TGI (MOLT-4 leukemia): 62.7 µM
- GI50 (UO-31 renal): 13.8 µM
- TGI (UO-31 renal): 31.2 µM
- GI50 (NCI/ADR-RES ovarian): 18.2 µM
- TGI (NCI/ADR-RES ovarian): 44.3 µM
- GI50 (HL-60(TB) leukemia): 25.1 µM
- TGI (HL-60(TB) leukemia): 64.8 µM
- GI50 (BT-549 breast): 24.8 µM
- TGI (BT-549 breast): 86.8 µM
- GI50 (HCC-2998 colon): 10.7 µM
- TGI (HCC-2998 colon): 23.8 µM
- GI50 (CCRF-CEM leukemia): 23.8 µM
- TGI (CCRF-CEM leukemia): 91.5 µM
- GI50 (HS 578T breast): 20.9 µM
- TGI (HS 578T breast): 80.1 µM
- GI50 (A498 renal): 1.97 µM
- TGI (A498 renal): 11.9 µM

Compound: Cc1cc(=O)oc2cc(OS(C)(=O)=O)ccc12
- TGI (NCI/ADR-RES ovarian): > 100 µM
- TGI (HL-60(TB) leukemia): > 100 µM
- TGI (EKVX NSCLC): > 100 µM
- TGI (BT-549 breast): > 100 µM
- TGI (HCC-2998 colon): > 100 µM
- TGI (CCRF-CEM leukemia): > 100 µM
- TGI (HS 578T breast): > 100 µM
- TGI (A498 renal): > 100 µM

Compound: CCCN(CCSSCCNc1nc(N(C)O)nc(N(C)O)n1)c1nc(N(C)O)nc(N(C)O)n1
- GI50 (MOLT-4 leukemia): 3.72 µM
- TGI (MOLT-4 leukemia): > 100 µM
- GI50 (UO-31 renal): 5.19 µM
- TGI (UO-31 renal): > 100 µM
- GI50 (NCI/ADR-RES ovarian): 6.48 µM
- TGI (NCI/ADR-RES ovarian): > 100 µM
- GI50 (HL-60(TB) leukemia): 3.31 µM
- TGI (HL-60(TB) leukemia): > 100 µM
- GI50 (BT-549 breast): 7.6 µM
- TGI (BT-549 breast): > 100 µM
- GI50 (HCC-2998 colon): 4.73 µM
- TGI (HCC-2998 colon): > 100 µM
- GI50 (CCRF-CEM leukemia): 2.24 µM
- TGI (CCRF-CEM leukemia): > 100 µM
- GI50 (HS 578T breast): 25.5 µM
- TGI (HS 578T breast): > 100 µM
- GI50 (A498 renal): 19.5 µM
- TGI (A498 renal): > 100 µM

Compound: O=[N+]([O-])c1ccc2nc3ccccc3cc2c1
- TGI (UO-31 renal): 16.7 µM
- TGI (NCI/ADR-RES ovarian): 3.47 µM
- TGI (EKVX NSCLC): 22.9 µM
- TGI (BT-549 breast): 21.7 µM
- TGI (HCC-2998 colon): 3.12 µM
- TGI (HS 578T breast): 27.4 µM
- TGI (A498 renal): 3.27 µM
